# Measured values from the OligoGym collection.
# Bases are written 5' to 3'; sugars and linkages follow in the same order, as letters with counts (s phosphorothioate, o phosphodiester; PS: all linkages phosphorothioate). The collection does not say whether C is 5-methylated. l = locked nucleic acid (LNA); d = 2'-deoxy (DNA)
# Biological target: Tau
# Test: rat primary cortical neurons, FLIPR, 25 uM ASO
row,Sequence,calcium oscillation score
1,"CCACTCCATGTCAATC (sugars l4 d10 l2, PS)",69.3 % of control
2,"CCACTCCATGTCAATCA (sugars l4 d11 l2, PS)",63.5 % of control
3,"CCACTGGCGACTTGTACACG (sugars l3 d14 l3, PS)",16.8 % of control
4,"CCACTTTACTTTGCAAC (sugars l4 d11 l2, PS)",55.8 % of control
5,"CCAGACACCACTGGCGACTT (sugars l3 d14 l3, PS)",128 % of control
6,"CCAGACCATCAATTTCC (sugars l2 d13 l2, PS)",83.3 % of control
7,"CCAGATTCCCCAACTC (sugars l2 d12 l2, PS)",73.3 % of control
8,"CCAGATTCCCCAACTCA (sugars l2 d12 l3, PS)",76.7 % of control
9,"CCAGATTCCCCAACTCAC (sugars l3 d13 l2, PS)",89 % of control
10,"CCAGCAGCTTCGTCTTCCAG (sugars l3 d14 l3, PS)",36.1 % of control
11,"CCAGCGTGATCTTC (sugars l3 d8 l3, PS)",120 % of control
12,"CCAGCGTGATCTTCCA (sugars l3 d10 l3, PS)",98 % of control
13,"CCAGCGTGATCTTCCATCAC (sugars l3 d14 l3, PS)",112 % of control
14,"CCAGCGTGATCTTCCATCAC (sugars l4 d11 l5, PS)",124 % of control
15,"CCAGCGTGATCTTCCATCAC (sugars l5 d11 l4, PS)",91.6 % of control
16,"CCAGCGTGATCTTCCATCAC (sugars ldlllddddddddddlldll, PS)",124 % of control
17,"CCAGCGTGATCTTCCATCAC (sugars lldllddddddddddlldll, PS)",121 % of control
18,"CCAGCTAGTGGTGCCACCTG (sugars l3 d14 l3, PS)",1.84 % of control
19,"CCAGGGACCCAATCTT (sugars l3 d10 l3, PS)",76 % of control
20,"CCAGGGACCCAATCTTCGAC (sugars l3 d14 l3, PS)",9.04 % of control
21,"CCAGGGACGTGGGTGATATT (sugars l3 d14 l3, PS)",0 % of control
22,"CCAGGGAGGCAGACACCTCG (sugars l3 d14 l3, PS)",10.2 % of control

row,Sequence,calcium oscillation score
1,"CCAGTGCCTGGCACAACAGG (sugars l3 d14 l3, PS)",4.03 % of control
2,"CCAGTTACCATCATACA (sugars l2 d12 l3, PS)",91.8 % of control
3,"CCATCAATTTCCCTGT (sugars l2 d10 l4, PS)",56.3 % of control
4,"CCATCAATTTGGAAAGATGA (sugars l3 d14 l3, PS)",52.3 % of control
5,"CCATCACTTCGAACTC (sugars l3 d10 l3, PS)",≥ 200 % of control
6,"CCATCAGTCTTATCTCC (sugars l1 d14 l2, PS)",52.9 % of control
7,"CCATCATACTCCAAGTT (sugars l3 d12 l2, PS)",60.8 % of control
8,"CCATCCTAAGTCAACCA (sugars l2 d13 l2, PS)",62.8 % of control
9,"CCATCCTATCTTCTAG (sugars l3 d10 l3, PS)",44.3 % of control
10,"CCATCTTAATTCATTTAATT (sugars l4 d13 l3, PS)",69.1 % of control
11,"CCATGATCTTAGGCTG (sugars l3 d10 l3, PS)",17.6 % of control
12,"CCATGTCGATGCTGC (sugars l3 d9 l3, PS)",7.14 % of control
13,"CCATGTCGATGCTGCC (sugars l3 d10 l3, PS)",55.1 % of control
14,"CCATTAATTTAGCCAA (sugars l3 d9 l4, PS)",87.2 % of control
15,"CCATTATCTCACTGCTT (sugars l3 d12 l2, PS)",29.3 % of control
16,"CCATTCAGATCTATCCA (sugars l3 d12 l2, PS)",94.3 % of control
17,"CCATTCCCTCCAGAACCATC (sugars l3 d14 l3, PS)",36.3 % of control
18,"CCATTTTCACTGTTCACA (sugars l2 d14 l2, PS)",86.3 % of control
19,"CCATTTTCCATATAATT (sugars l4 d9 l4, PS)",76.5 % of control
20,"CCATTTTCCATATAATTT (sugars l4 d10 l4, PS)",70.7 % of control
21,"CCATTTTCCATATAATTTT (sugars l3 d12 l4, PS)",79.3 % of control
22,"CCATTTTCCATATAATTTTA (sugars l3 d14 l3, PS)",56.3 % of control

row,Sequence,calcium oscillation score
1,"CCATTTTTATCATCACCT (sugars l3 d13 l2, PS)",63.8 % of control
2,"CCCAAGAGGCACAAGT (sugars l3 d10 l3, PS)",89.5 % of control
3,"CCCAATCTTCGACTGG (sugars l3 d10 l3, PS)",21.7 % of control
4,"CCCAATCTTCGACTGGACTC (sugars l3 d14 l3, PS)",31.6 % of control
5,"CCCACAGCACTAAATTT (sugars l3 d11 l3, PS)",83.5 % of control
6,"CCCACATAAACTCCTT (sugars l3 d10 l3, PS)",53.4 % of control
7,"CCCACATTATATCAGTA (sugars l2 d12 l3, PS)",80.7 % of control
8,"CCCACATTTGCAAACCA (sugars l2 d13 l2, PS)",53.9 % of control
9,"CCCACATTTGCAAACCAC (sugars l2 d14 l2, PS)",50.5 % of control
10,"CCCACCAAAGACTTCA (sugars l2 d11 l3, PS)",58.3 % of control
11,"CCCACCCAAACTCCAAGT (sugars l2 d13 l3, PS)",69.3 % of control
12,"CCCACCCATCAATTTGGAAA (sugars l3 d14 l3, PS)",11.7 % of control
13,"CCCACTTTTAATTAAATTTC (sugars l3 d14 l3, PS)",76.8 % of control
14,"CCCAGAATTCTAACTA (sugars l4 d10 l2, PS)",63.5 % of control
15,"CCCAGAATTCTAACTAT (sugars l4 d11 l2, PS)",77 % of control
16,"CCCAGACCATCAATTTC (sugars l2 d12 l3, PS)",82.2 % of control
17,"CCCAGCACACAGGCAGCCAC (sugars l3 d14 l3, PS)",24.2 % of control
18,"CCCAGCGTGATCTT (sugars l3 d8 l3, PS)",46 % of control
19,"CCCAGCGTGATCTTCC (sugars l3 d10 l3, PS)",4.6 % of control
20,"CCCAGCGTGATCTTCCATCA (sugars l3 d14 l3, PS)",104 % of control
21,"CCCAGCGTGATCTTCCATCA (sugars l4 d11 l5, PS)",104 % of control
22,"CCCAGCGTGATCTTCCATCA (sugars l5 d11 l4, PS)",106 % of control

row,Sequence,calcium oscillation score
1,"CCCAGCGTGATCTTCCATCA (sugars ldlllddddddddddlldll, PS)",124 % of control
2,"CCCAGCGTGATCTTCCATCA (sugars lldllddddddddddlldll, PS)",100 % of control
3,"CCCATCAATTTGGAAAGATG (sugars l3 d14 l3, PS)",58.1 % of control
4,"CCCATCTTAATTCATTTAAT (sugars l2 d14 l4, PS)",90.1 % of control
5,"CCCATTCAGATCTATCC (sugars l2 d13 l2, PS)",102 % of control
6,"CCCATTTACAATTCAG (sugars l3 d10 l3, PS)",52.6 % of control
7,"CCCCACCCAAACTCCAAG (sugars l1 d15 l2, PS)",46.2 % of control
8,"CCCCACTTTTAATTAAA (sugars l4 d10 l3, PS)",99.7 % of control
9,"CCCCACTTTTAATTAAAT (sugars l3 d11 l4, PS)",95.2 % of control
10,"CCCCACTTTTAATTAAATTT (sugars l3 d15 l2, PS)",97 % of control
11,"CCCCAGACCATCAATT (sugars l2 d12 l2, PS)",57.7 % of control
12,"CCCCAGACCATCAATTT (sugars l2 d13 l2, PS)",61.7 % of control
13,"CCCCATTCAGATCTATC (sugars l2 d13 l2, PS)",98.8 % of control
14,"CCCCATTTATCCTTCATG (sugars l2 d14 l2, PS)",49.4 % of control
15,"CCCCATTTTTGACATAT (sugars l2 d12 l3, PS)",73.1 % of control
16,"CCCCTCCATTAAGAAC (sugars l3 d11 l2, PS)",68.1 % of control
17,"CCCCTCCATTAAGAACCT (sugars l1 d15 l2, PS)",88.6 % of control
18,"CCCGAGCCAAAGCC (sugars l3 d8 l3, PS)",52.2 % of control
19,"CCCGAGCCAAAGCCGA (sugars l3 d10 l3, PS)",50.6 % of control
20,"CCCGCCTTTAGTGATT (sugars l3 d10 l3, PS)",30.9 % of control
21,"CCCGCCTTTAGTGATTACAG (sugars l3 d14 l3, PS)",2.38 % of control
22,"CCCGGAACTCTCAACTCCTC (sugars l3 d14 l3, PS)",18.1 % of control

row,Sequence,calcium oscillation score
1,"CCCGTCTTTGCTTTTACTGA (sugars l3 d14 l3, PS)",0 % of control
2,"CCCGTGGTCTGTCT (sugars l3 d8 l3, PS)",89.8 % of control
3,"CCCGTGGTCTGTCTTG (sugars l3 d10 l3, PS)",0 % of control
4,"CCCTAAACCATGATCT (sugars l3 d10 l3, PS)",89.7 % of control
5,"CCCTAAAGTCCCAG (sugars l3 d8 l3, PS)",51.4 % of control
6,"CCCTAAAGTCCCAGG (sugars l3 d9 l3, PS)",72.4 % of control
7,"CCCTAAAGTCCCAGGT (sugars l3 d10 l3, PS)",76.2 % of control
8,"CCCTAAGCTCTCACTA (sugars l2 d12 l2, PS)",69.1 % of control
9,"CCCTCACTTTTTATTCAAC (sugars l2 d14 l3, PS)",76 % of control
10,"CCCTCCCTTTAATGCCAGGC (sugars l3 d14 l3, PS)",6.04 % of control
11,"CCCTGAAACCATTAAC (sugars l3 d9 l4, PS)",70.2 % of control
12,"CCCTGAAACCATTAACT (sugars l3 d12 l2, PS)",69 % of control
13,"CCCTGAAAGAGGGCAG (sugars l3 d10 l3, PS)",18.4 % of control
14,"CCCTTAATTTCACCC (sugars l3 d9 l3, PS)",103 % of control
15,"CCCTTAATTTCACCCT (sugars l3 d10 l3, PS)",80.9 % of control
16,"CCCTTAGACATAACACA (sugars l3 d12 l2, PS)",65.5 % of control
17,"CCCTTCAACATCAGCCA (sugars l2 d13 l2, PS)",47.6 % of control
18,"CCCTTGATCATATTTGTGGC (sugars l3 d14 l3, PS)",35.7 % of control
19,"CCCTTTCAAACCAGCA (sugars l3 d11 l2, PS)",91.8 % of control
20,"CCGAACTGCGAGGAGC (sugars l3 d10 l3, PS)",5.43 % of control
21,"CCGAACTGCGAGGAGCAGCT (sugars l3 d14 l3, PS)",38.9 % of control
